Measurements from patent US7939091B2, “Biorational repellents obtained from terpenoids for use against arthropods” (Iowa State University Research Foundation, Inc., priority 1999, dated 2011).
Where “and” joins values, the source holds several entries; their conditions need not be identical. Identical values can stand only once.

Key:
[1] = system: house fly, Musca domestica; assay: Choice-test arena bioassay (contact irritancy), house fly; assay type: in vivo; conditions: for Percentage Repellency: 300-second period
Experimental: (§1) A choice-test arena was used to assess irritancy of test solutions to two common household insect pests, the German cockroach (Blattella germanica) and the house fly (Musca domestica). Catnip essential oil obtained by steam distillation of catnip obtained from the same source as described in the above examples, and the two major components of its essential oil, Z,E-nepetalactone and E,Z-nepetalactone (isolated from the essential oil by preparative TLC), were evaluated for behavioral effects of contact irritancy to the German cockroach. The TLC was performed as described in McElvain, S. M. et al., J. Am. Chem. Soc., 1941, 63, 1558-1563. Catnip essential oil and its major constituent Z,E-nepetalactone were tested against the house fly. N,N-diethyl-m-toluamide (DEET) (Aldrich, St. Louis, Mo.) served as a positive control for the choice-test arena assay and as a point of comparison for measuring insect behavioral effects that result from current commercial insect repellents. Test solutions ranging from 10% to 0.1% (vol/vol) active ingredient (a.i.) were made up in acetone and then delivered on to a filter paper for solvent evaporation. […] Choice-test are for German cockroaches and house flies were constructed from plastic Petri dishes. One-half of a 12.5-cm dia. filter paper was treated with 1 ml test solution, and the other was treated with 1 ml of only solvent (control). Both halves of the filter paper were placed in the choice-test arena. Position of the treated filter paper was randomized using a random-number table.
(§2) Individual German cockroaches or house flies were placed in each choice-test arena through a centered hole in the lid of the Petri dish and evaluated for a 300-second period. The amount of time the insect spent on the treated and untreated filter papers were recorded and used to calculate a percentage repellency value: Percentage Repellency=((Time on Untreated-Time on Treated)/300)×100
(§3) Ten replicates of each treatment solution were tested for both German cockroaches and house flies. Details of this assay design and some results have previously been described.

[2] = system: German cockroach (Blattella germanica); assay: Choice test arena repellency bioassay, adult male German cockroach, 300-second test; assay type: in vivo; conditions: for Mean Treated / Mean Untreated: 300-second test; for % repellency: (untreated − treated/300)*100
Experimental: Test Procedure. Repellency bioassays were conducted to assess the repellent properties of compositions containing catnip steam distillate (nepetalactone), Z,E-nepetalactone, E,Z-nepetalactone and DEET against cockroaches. Certified acetone and certified hexane were also tested in order to evaluate solvent effects. (DEET was dissolved in acetone, because DEET is insoluble in hexane. The tested compounds were dissolved in hexane because hexane was the solvent used to extract these compounds from the distillate). One Whatman 125-mm round filter paper was cut in half. One side was treated with one (1) ml of the test compound and the other side was treated with one (1) ml of solvent. The papers were allowed to dry in a fume hood for approximately two (2) minutes before being placed in a 150-mm Petri dish arena. The relative position of the treated side (i.e., to the right or left) of the dish was randomized using a random number table. […] The hole was stopped using a small piece of tape to prevent the insect from escaping. One adult male German cockroach (Blattella germanica) was selected from the colony and dropped into the pre-formed hole in the Petri dish lid. […] Ten (10) replications were performed for each test compound. Results. Using mean values and their related Standard Error of the Mean values (SEM), repellency of the selected samples was determined as shown in Table 2. Significance due to concentration was determined using ANOVA. […] Comparisons between test compounds were made using a two-tailed paired t-test (“paired t-test”) which indicates “differences” as is known in the art and shown in Table 4 (as compared with a “one-tailed” test, which indicates “greater or less than”). Testing Procedure. The same procedure described in Example 1 was used.

female German cockroach = assay: Choice test arena repellency, female German cockroach; assay type: in vivo, Blattella germanica; parameters: key: seconds spent on the side during a 300-second period; conditions: 10% by volume (1600 μg/cm^2) vs. acetone
Experimental: One Whatman 125-mm round filter paper was cut in half. One side was treated with one (1) ml of the test compound and the other side was treated with one (1) ml of solvent. The papers were allowed to dry in a fume hood for approximately two (2) minutes before being placed in a 150-mm Petri dish arena. The relative position of the treated side (i.e., to the right or left) of the dish was randomized using a random number table. […] The hole was stopped using a small piece of tape to prevent the insect from escaping. One adult male German cockroach (Blattella germanica) was selected from the colony and dropped into the pre-formed hole in the Petri dish lid. Immediately after introduction of the cockroach, the number of seconds the cockroach spent on the treated or untreated side during a 300-second (five (5) minute) period was recorded with two different (2) stopwatches. Ten (10) replications were performed for each test compound.
Testing methods and materials. In this experiment, female German cockroaches were tested in the same manner described in Example 1 against the steam distillates of catnip and the Osage orange. Testing using the commercial repellent, DEET, was also performed for comparison. It is known that male cockroaches are generally more sensitive to repellents, such as DEET, than female cockroaches.

[3] = system: German cockroach, Blattella germanica; assay: Choice-test arena bioassay (contact irritancy), German cockroach, Example 6; assay type: in vivo; conditions: 300-second period
Experimental: as §1, §2, §3

[4] = system: antennectomized male German cockroaches; assay: Choice test arena behavioral assay of antennectomized male cockroaches; assay type: in vivo, Blattella germanica; conditions: Annectomized male cockroaches; 1600 μg/cm^2
Experimental: Testing Procedure. Male cockroaches were antennectomized by using a razor blade to remove the antennae as close to the head as possible. The cockroaches were allowed to recover from the procedure for 24 hours before being exposed to the test compounds in the bioassay described in Example 1. Results.

[5] = 0.1% test solution vs solvent-treated half, male
[6] = 0.5% test solution vs solvent-treated half, male
[7] = 1% test solution vs solvent-treated half, male
[8] = 5% test solution vs solvent-treated half, male
[9] = 10% test solution vs solvent-treated half, male

CCN(CC)C(=O)c1cccc(C)c1 [DEET, N,N-diethyl-3-methylbenzamide, reference compound]
higher percentage repellency values (text summary of Table 15) ([1]; across application rates tested): 39% | Percentage Repellency ([1]; application rate 80 μg/cm^2): 38.7% | Percentage Repellency ([1]; application rate 160 μg/cm^2): 19.3% | Percentage Repellency ([1]; application rate 800 μg/cm^2): 20.7% | Mean Treated [2, 5]: 129 s | Mean Untreated [2, 5]: 175 s | Mean Treated [2, 6]: 128 s | Mean Untreated [2, 6]: 175 s | Mean Treated [2, 7]: 120 s | Mean Untreated [2, 7]: 181 s | Mean Treated [2, 8]: 113 s | Mean Untreated [2, 8]: 190 s | Mean Treated [2, 9]: 63 s and 63.4 s | Mean Untreated [2, 9]: 238 s | Mean seconds on treated side ± SEM ([2]; Non-antennectomized male cockroaches, 1600 μg/cm^2): 63.4 ± 15.9 s | % repellency ([2]; dose 16 μg/cm^2): 15% | Mean seconds on treated side ± SEM ([2]; dose 16 μg/cm^2, male B. germanica, in 300 seconds): 129 ± 9.0 a seconds | % repellency ([2]; dose 80 μg/cm^2): 16% | Mean seconds on treated side ± SEM ([2]; dose 80 μg/cm^2, male B. germanica, in 300 seconds): 128 ± 9.7 a seconds | % repellency ([2]; dose 160 μg/cm^2): 20% | Mean seconds on treated side ± SEM ([2]; dose 160 μg/cm^2, male B. germanica, in 300 seconds): 120 ± 13.8 a seconds | % repellency ([2]; dose 800 μg/cm^2): 26% | Mean seconds on treated side ± SEM ([2]; dose 800 μg/cm^2, male B. germanica, in 300 seconds): 113 ± 14.5 a seconds | % repellency ([2]; dose 1600 μg/cm^2): 58% | Mean seconds on treated side ± SEM ([2]; dose 1600 μg/cm^2, male B. germanica, in 300 seconds): 63.4 ± 15.9 b seconds | treated, mean of 10 trials (female German cockroach): 144 | untreated, mean of 10 trials (female German cockroach): 156.9 | treated (time on treated side), single trials 1-10 (female German cockroach; 300-second test as Example 1, in s (unit assumed)): 99 and 166 and 116 and 181 and 157 and 146 and 137 and 150 | Percentage Repellency ± SEM ([3]; application rate 80 μg/cm^2): 15.5 ± 5.4a % | Percentage Repellency ± SEM ([3]; application rate 160 μg/cm^2): 20.4 ± 9.2a % | Percentage Repellency ± SEM ([3]; application rate 800 μg/cm^2): 25.8 ± 9.5a % | Percentage Repellency ± SEM ([3]; application rate 1.60 mg/cm^2): 58.3 ± 10.5b % | Mean seconds on treated side ± SEM [4]: 148 ± 17.1 s | Mean seconds on untreated side [4]: 154 ± 17.2 s

C=CC1(C)CCC(C(C)(C)O)CC1C(=C)C (stereo not shown) [Elemol]
Mean Treated ([2]; amount used 1% solution): 107 s | Mean Untreated ([2]; amount used 1% solution): 196 s | % repellency ([2]; amount used 1% solution): 30%
